Data from patent US11542311B2, “Fusion protein, preparation method therefor and application thereof in preparing ophthalmic disease treatment, anti-inflammation and anti-tumor medicament” (JIANGSU RONGTAI BIOTECH CO., LTD., priority 2017, dated 2023).

Tests used:
[1] = test system: xylene-induced ear swelling in mice; assay: Xylene-induced ear swelling in mice; type: in vivo, Kunming mice; settings: 200 mg/kg
Method: 80 Kunming mice were divided into 8 groups with 10 mice for each group and numbered. A physiological saline group was used as a blank control group, an aspirin group (200 mg/kg) was used as a positive control group, and fusion proteins I and II at high, medium and low doses (128, 32, 8 mg/kg) was used as the experimental groups. Mice were administered once by injection every 5 days. The blank control group was given an equal volume of physiological saline. On the fifth day after the administration, 0.05 mL of xylene was applied to both sides of the right ears of the mice to induce inflammation, and the left ears were not applied and were normal ears. After 2 h, the mice were sacrificed by dislocation, and the ears were cut along the auricle. Ear pieces were taken with a puncher and weighed, and the swelling degree and swelling rate were calculated. Swelling degree=right ear piece weight-left ear piece weight, swelling rate=(swelling degree/left ear piece weight)×100%.

[2] = test system: adjuvant arthritis in rat; assay: Chronic inflammation of adjuvant arthritis in rat; type: in vivo, SD rats; settings: 1 mg/kg once every 5 days for 15 days
Method: 80 SPF SD rats were randomly divided into 8 groups. Rats in each group were lightly anesthetized with ether. Then, 0.1 mL of complete Freund's adjuvant containing inactivated Mycobacterium tuberculosis was injected subcutaneously into the left hind foot of the rats. Primary arthritis occurred in the left hind foot of the rat, and at about 13 days post-modeling, secondary arthritis occurred in the right hind foot. A blank control group was injected with an equal volume of physiological saline. The drug was administered 13 days after modeling.
Using a foot volume measuring method, a marker was made with a fat-soluble marker at the left and right posterior ankle joints of each rat, and the left and right hind feet of the animal were respectively immersed in the volume measuring device. The immersion depth was bounded by the marker, and the reading value at the scale pipette of the device was the initial volume of the animal's left and right hind feet.
The day of modeling was considered as the 0th day and recorded as d0. The volume of the left hind foot (modeling foot) was measured from the first day dl after modeling every 2 days. When the swelling occurred (i.e., secondary arthritis occurred) at the contralateral non-inflammatory foot (right hind foot), the administration was started. The volume of the left and right hind feet was measured once every 2 days, and the degree of primary and secondary toe swelling was determined, which was calculated as follows: Primary toe swelling (mL)=left hind foot volume on the day of measurement−initial volume of left hind foot Secondary toe swelling (mL)=right hind foot volume on the day of measurement−initial volume of right hind foot
Systemic score: the systemic score was taken every 2 days after the onset of secondary inflammation.
Hind foot: no swelling=0 score, one hind foot swelling=1 score, two hind feet swelling=2 scores;
Forefoot: no swelling=0 score, one forefoot swelling=1 score, two forefeet swelling=2 scores;
Ears: no redness and nodules=0 score, redness or nodules in one ear=1 score, redness and nodules in both ears=2 scores;
Nose: no swelling=0 score, obvious swelling=1 score;
Tail: no nodules=0 score, nodules=1 score; full score was 8 scores.
Arthritis index score: the arthritis index score was performed every 2 days after the onset of secondary inflammation.
The initial body weight of each group of rats was weighed before modeling. The body weight was measured every 2 days from dl after modeling, from which the initial body weight was subtracted to obtain the weight gain of each group of rats.

[3] = test system: Human umbilical vein endothelial cells (HUVECs); assay: Three-dimensional transwell assay, migration of HUVEC; type: cell-based; settings: 8.0 · 10^−6 μg/mL, 24 h
Method: (1) 10 mg/mL Matrigel (a basement membrane matrix secreted by Engelbreth-Holm-Swarm (EHS) mouse sarcoma cells) diluted with a DMEM medium (Dulbecco's Modified Eagle Medium) at a ratio of 1:4, coated on a transwell chamber membrane, and air-dried at room temperature;
(2) HUVEC cells cultured to logarithmic phase were digested with 0.2% EDTA, collected, washed twice with PBS, followed by resuspended in an endothelial cell culture liquid containing 0.1% BSA, and counted under a microscope, and the cell concentration was adjusted to 1×10^5 cells/mL;
(3) Test solutions for each group were formulated and diluted to 100 μL with a cell culture liquid containing 0.1% BSA;
(4) The cells were inoculated into a transwell chamber, 100 μL per well, and test solutions for each group were added to the chamber. To a 24-well plate, 0.6 mL of endothelial cell culture liquid containing 5% fetal bovine serum and 1×ECGS was added to stimulate cell migration, and incubated at 5% CO2 at 37° C. for 24 h;
(5) The culture liquid in the well was discarded. […] The migration inhibition (MI) was calculated according to the formula: […]
The test was repeated 3 times independently. The results obtained from the test were calculated as mean±SD, and statistical t-test was performed. […]

[4] = test system: breast cancer cell MDA-MB-231; assay: MTT assay, proliferation of breast cancer cell MDA-MB-231; type: cell-based; settings: 5 μg/mL, 48 h
Method: (§1) The MTT assay was used to detect the inhibitory effect of the integrin blocker fusion protein obtained in Example 1 on the proliferation of various tumor cells, including melanoma cell B16F10, gastric cancer cell MGC-803, lung cancer cell A549, liver cancer cell Hep-G2, breast cancer cell MDA-MB-231, colon cancer cell HCT-116, human glioma U87, and cervical cancer cell Hela.
(§2) The tumor cells were cultured in a 5% CO2 incubator at 37° C. to a density of 90% or more, and collected by trypsinization. The cells were resuspended in the culture liquid and counted under a microscope. The cell concentration was adjusted to 3.0×10^4 cells/mL. The cell suspension was inoculated into a 96-well plate, 100 μL per well, and cultured overnight in a 5% CO2 incubator at 37° C. The fusion proteins I, II, and the positive drug Taxol were diluted with the culture liquid to respective predetermined concentrations. After the cells were fully adhered, each dilution was added to a 96-well plate, 100 μL per well, respectively. […] The absorbance was measured at 570 nm with a microplate reader with a reference wavelength of 630 nm, and the proliferation inhibition (PI) was calculated. […]
(§3) The test was repeated 5 times independently. The results obtained from the test were calculated as mean±SD, and statistical t-test was performed. […]

lung cancer cell A549 = assay: MTT assay, proliferation of lung cancer cell A549; type: cell-based; settings: 5 μg/mL, 48 h
Method: as §1, §2, §3

[5] = test system: gastric cancer cell MGC-803; assay: MTT assay, proliferation of gastric cancer cell MGC-803; type: cell-based; settings: 5 μg/mL, 48 h
Method: as §1, §2, §3

liver cancer cell Hep-G2 = assay: MTT assay, proliferation of liver cancer cell Hep-G2; type: cell-based; settings: 5 μg/mL, 48 h
Method: as §1, §2, §3

melanoma cell B16F10 = assay: MTT assay, proliferation of melanoma cell B16F10; type: cell-based; settings: 5 μg/mL, 48 h
Method: as §1, §2, §3

human glioma U87 = assay: MTT assay, proliferation of human glioma U87; type: cell-based; settings: 5 μg/mL, 48 h
Method: as §1, §2, §3

[6] = test system: colon cancer cell HCT-116; assay: MTT assay, proliferation of colon cancer cell HCT-116; type: cell-based; settings: 5 μg/mL, 48 h
Method: as §1, §2, §3

[7] = test system: cervical cancer cell Hela; assay: MTT assay, proliferation of cervical cancer cell Hela; type: cell-based; settings: 5 μg/mL, 48 h
Method: as §1, §2, §3

What does the source list for `CC(=O)Oc1ccccc1C(=O)O` [Aspirin, aspirin, reference compound]?
PI (%) ([1]; ear swelling, mice): 53.15%; Swelling degree ([1]; mouse ear, 2 h after xylene): 3.12 ± 0.61 mg

Which results are given for `CN(Cc1cnc2nc(N)nc(N)c2n1)c1ccc(C(=O)N[C@@H](CCC(=O)O)C(=O)O)cc1` [Methotrexate, methotrexate, reference compound]?
Clinical score Arthritis index [2]: 2.96 ± 0.57; Clinical score Whole body [2]: 1.34 ± 0.19; Foot swelling degree (mL) Left [2]: 1.22 ± 0.21 mL; Foot swelling degree (mL) Right [2]: 1.25 ± 0.13 mL; Weight gain [2]: 47.35 ± 17.40 g

What does the source list for `CCN(CC)CCNC(=O)c1c(C)[nH]c(/C=C2\C(=O)Nc3ccc(F)cc32)c1C` [Sunitinib, reference compound]?
MI (%) [3]: 82.31%; Migration cell number [3]: 441.0 ± 150.58

How did the “A570 nm/A630 nm” value [4] turn out when `CC(=O)O[C@H]1C(=O)[C@@]2(C)[C@H]([C@H](OC(=O)c3ccccc3)[C@]3(O)C[C@H](OC(=O)[C@H](O)[C@@H](NC(=O)c4ccccc4)c4ccccc4)C(C)=C1C3(C)C)[C@]1(OC(C)=O)CO[C@@H]1C[C@@H]2O` [Taxol, reference compound] was run?
The value was 0.4071 ± 0.0301.

And the “PI (%)” value [4]?
Its value is 52.83%.

And the “A570 nm/A630 nm” value (lung cancer cell A549)?
The value was 0.3226 ± 0.0309.

And the “PI (%)” value (lung cancer cell A549)?
Its value is 52.17%.

What about the “A570 nm/A630 nm” value [5] of the same compound?
Its value is 0.4146 ± 0.0186.

And the “PI (%)” value [5]?
Its value is 56.60%.

What about the “A570 nm/A630 nm” value (liver cancer cell Hep-G2) of the same compound?
Its value is 0.4257 ± 0.0099.

And the “PI (%)” value (liver cancer cell Hep-G2)?
The value was 58.55%.

What about the “A570 nm/A630 nm” value (melanoma cell B16F10) of the same compound?
Its value is 0.6011 ± 0.0144.

What about the “PI (%)” value (melanoma cell B16F10) of the same compound?
Its value is 52.13%.

And the “A570 nm/A630 nm” value (human glioma U87)?
The value was 0.1825 ± 0.0163.

And the “PI (%)” value (human glioma U87)?
Its value is 76.38%.

What about the “A570 nm/A630 nm” value [6] of the same compound?
The value was 0.2098 ± 0.0164.

And the “PI (%)” value [6]?
The value was 69.16%.

And the “A570 nm/A630 nm” value [7]?
Its value is 0.2078 ± 0.0162.

And the “PI (%)” value [7]?
Its value is 83.75%.
